# Measured values published in US11891625B2, “Methods and compositions relating to hematopoietic stem cell expansion, enrichment, and maintenance” (CHILDREN'S MEDICAL CENTER CORPORATION, priority 2015, dated 2024).
# Legend:
# [1] = tested on: murine HSCs (lineage-, ckit+, Sca1+, CD150+, CD48-, Fgd5ZsGr+); test: Culture of 100 murine HSCs with compound cocktail plus VPA or TSA, day 7 flow cytometry; assay type: cell-based; details: cytokines plus cocktail (Lithium chloride, nicotinamide, N-acetylcysteine, ascorbic acid, A83-01, SB203580)
# Protocol: 100 murine HSCs (lineage−, ckit+, Sca1+, CD150+, CD48−, Fgd5ZsGr+) were cultured in the presence of cytokines only (SCF, TPO, and IL12) in the absence of compounds (Standard), or additionally supplemented with a cocktail of compounds (Lithium chloride, nicotinamide, N-acetylcysteine, ascorbic acid, A83-01, and SB203580) plus either valproic acid (VPA) or trichostatin A (TSA), which are structurally distinct HDAC inhibitors. FIG. 22A depicts day 7 flow cytometric analysis and FIG. 22B depicts the proportion of Fgd5−ZsGreen+ Sca1+ cells for each replicate.
# In addition to inhibitors of histone demethylation and TGFβ signaling, histone deacetylase inhibitors also promote the expansion, enrichment, and maintenance of hematopoietic stem cells ex vivo. […] 3000 CD34+ enriched mobilized peripheral blood cells were cultured for 7 days in serum free media supplemented with cytokines (SCF, TPO, FLT3L, IL3) in the presence of the indicated chemical combinations (Tgfbeta inhibitor (A, A83-01), pan-HDAC inhibitor (TSA, Trichostatin A), LSD1 inhibitor (TC, Tranylcypromine), p38 inhibitor (p38i, SB203580), HDAC1/2 inhibitor (Rom, Romidepsin)) and analyzed by flow cytometry. […]
# [2] = tested on: murine HSCs (lineage-, ckit+, Sca1+, CD150+, CD48-, Fgd5ZsGr+); test: Culture of 40 murine HSCs for 12 days with compound cocktail plus RG108 and/or UNC0638, flow cytometry; assay type: cell-based; details: cytokines plus cocktail incl. trichostatin A, plus either or both RG108 and UNC0638
# Protocol: 40 murine HSCs (lineage−, ckit+, Sca1+, CD150+, CD48−, Fgd5ZsGr+) were cultured for 12 days in the presence of cytokines (SCF, TPO, and IL12) and a cocktail of compounds (Lithium chloride, nicotinamide, N-acetylcysteine, ascorbic acid, A83-01, and SB203580, trichostatin A) plus either or both DNA methyltransferase inhibitor (RG108) and G9a inhibitor (UNC0638). Flow cytometry plots of Fgd5+Lineage− cells from the indicated culture conditions are shown.
# A series of experiments was conducted in order to determine the relative contribution of compounds that modulate particular pathways to the expansion of hematopoietic stem cells. FIGS. 21A-21B show the contribution of each compound/pathway in ability to maintain and expand phenotypic HSCs during ex vivo culture. […] 200 cord blood HSCs were cultured for 12 days in serum free media supplemented with cytokines (SCF, TPO, FLT3L, IL3) in the presence of the indicated chemical combinations (Tgfbeta inhibitor (A, A83-01), HDAC inhibitor (TSA, Trichostatin A), and LSD1 inhibitor (TC, Tranylcypromine)) or additionally supplemented with p38 inhibitor (p38i, SB203580) and analyzed by flow cytometry. FIG. 35A: Immunophenotype of the cells post-culturing, and FIG. 35B: quantification of immunophenotypic HSCs (Lineage− CD34+ CD45RA−CD38− CD90+CD49F+) cultured in the indicated conditions.
# [3] = tested on: human mobilized peripheral blood CD34+ cells; test: Culture of 3000 CD34+ enriched mobilized peripheral blood cells for 7 days with chemicals or combinations, flow cytometry; assay type: cell-based; details: combinations with A83-01, Tranylcypromine, SB203580
# Protocol: 3000 CD34+ enriched mobilized peripheral blood cells were cultured for 7 days in serum free media supplemented with cytokines (SCF, TPO, FLT3L, IL3) in the presence of the indicated chemical combinations (Tgfbeta inhibitor (A, A83-01), pan-HDAC inhibitor (TSA, Trichostatin A), LSD1 inhibitor (TC, Tranylcypromine), p38 inhibitor (p38i, SB203580), HDAC1/2 inhibitor (Rom, Romidepsin)) and analyzed by flow cytometry. FIG. 41A depicts the immunophenotype of the cells, FIG. 41B depicts the percentage of indicated populations, and FIG. 41C depicts quantification of immunophenotypic HSCs (Lineage− CD34+ CD45RA−CD38− CD90+CD49F+) 7 days post-culturing in the indicated conditions.
# 3000 CD34+ enriched mobilized peripheral blood cells were cultured for 7 days in serum free media supplemented with cytokines (SCF, TPO, FLT3L, IL3) in the presence of the indicated chemical combinations (Tgfbeta inhibitor (A, A83-01), pan-HDAC inhibitor (TSA, Trichostatin A), LSD1 inhibitor (TC, Tranylcypromine), p38 inhibitor (p38i, SB203580), HDAC1/2 inhibitor (Rom, Romidepsin)) and analyzed by flow cytometry. FIG. 41A: immunophenotype of the cells, FIG. 41B: percentage of indicated populations, and FIG. 41C: quantification of immunophenotypic HSCs (Lineage− CD34+ CD45RA− CD38− CD90+CD49F+) 7 days post-culturing in the indicated conditions.
# p38 MAPK = details: as described in U.S. Pat. No. 6,602,896; cited from earlier work
# [4] = tested on: human CD34+ peripheral blood and cord blood hematopoietic stem cells; details: as described in the cited literature; cited from earlier work
# [5] = tested on: murine HSCs (Lineage- Sca1+ ckit+ CD34-Flk2- CD150+ Fgd5 ZsGr+); test: Ex vivo culture of 20 murine HSCs for 7 or 14 days (imaging, FACS of phenotypic HSCs); assay type: cell-based; details: 7 or 14 days ex vivo, versus DMSO
# Protocol: Images taken at 4× magnification.
# FIGS. 9A-9B show the expansion of phenotypic murine HSCs for 14 days ex vivo. 20 murine HSCs (Lineage− Sca1+ ckit+ CD34−Flk2−CD150+Fgd5⋅ZsGr+) were cultured in the presence of DMSO, LSD1 inhibitor IV (LS), Tgfbeta inhibitor RepSox (RS), and the combination of both (C2) for 14 days. This method supports maintenance and expansion of ZsGr+ HSCs. […] FIG. 9B depicts the number of Lineage− Sca1+ ckit+ CD34−Flk2−CD150+Fgd5⋅ZsGr+ HSCs in each condition after 14 days of ex vivo culture.
# An optimal combination of compounds that can be used to expand, enrich, and maintain the hematopoietic stem cell functional potential of hematopoietic stem cells includes a histone demethylase inhibitor and an inhibitor of the TGFβ receptor Alk5. […] Images taken at 4× magnification. […] FIGS. 9A-9B show the expansion of phenotypic HSCs for 14 days ex vivo. 20 murine HSCs (LSK34-Flk2-150+ZsGr+) were cultured in the presence of DMSO, LSD1 inhibitor IV (LS), Tgfbeta inhibitor RepSox (RS), and the combination of both (C2) for 14 days. This method supports maintenance and expansion of ZsGr+ HSCs. […] FIG. 9B: Number of ZsGr+ HSCs in each condition after 14 days of ex vivo culture. […] A) Bright-field and ZsGr images of 20 HSCs cultured for 4.5 days ex vivo in the presence of LSD1 inhibitor IV (LS), Tgfbeta inhibitor RepSox (RS), and the combination of both (C2). […]
# ZsGr+ murine HSCs = test: 4.5 day ex vivo culture of 20 Fgd5 ZsGr+ HSCs (frequency and number of ZsGr+ cells); assay type: cell-based; details: 4.5 days ex vivo culture
# Text: FIG. 10A depicts bright-field and ZsGr images of 20 Fgd5⋅ZsGr+ HSCs cultured for 4.5 days ex vivo in the presence of LSD1 inhibitor IV (LS), Tgfbeta inhibitor RepSox (RS), and the combination of both (C2). […] FIG. 10C depicts the number of ZsGr+ and ZsGr− cells after 4.5 day cultures.
# An optimal combination of compounds that can be used to expand, enrich, and maintain the hematopoietic stem cell functional potential of hematopoietic stem cells includes a histone demethylase inhibitor and an inhibitor of the TGFβ receptor Alk5. […] Images taken at 4× magnification. […] FIGS. 9A-9B show the expansion of phenotypic HSCs for 14 days ex vivo. 20 murine HSCs (LSK34-Flk2-150+ZsGr+) were cultured in the presence of DMSO, LSD1 inhibitor IV (LS), Tgfbeta inhibitor RepSox (RS), and the combination of both (C2) for 14 days. This method supports maintenance and expansion of ZsGr+ HSCs. […] FIG. 9B: Number of ZsGr+ HSCs in each condition after 14 days of ex vivo culture. […] A) Bright-field and ZsGr images of 20 HSCs cultured for 4.5 days ex vivo in the presence of LSD1 inhibitor IV (LS), Tgfbeta inhibitor RepSox (RS), and the combination of both (C2). FIG. 10B: Frequency of ZsGr+ cells remaining following 4.5 days of ex vivo culture. FIG. 10C: Number of ZsGr+ (Green) and ZsGr− (Black) cells within 4.5 day cultures (See also FIGS. 11A-13F and 28A-32B).
# human cord blood HSCs = test: In vitro colony forming assay of human cord blood HSCs after 14 days of ex vivo culture; assay type: cell-based; details: 14 day cord blood HSC cultures
# Protocol: FIG. 30A depicts colony counts and composition adjusted to represent the entire well following 14 days of ex vivo culture (Note: only a fraction of the well was added to methocult for colony formation). FIG. 30B depicts the frequency of myeloid colony types from 14 day cord blood HSC cultures.
structure (smiles),measurement,setting,value
CC(/C=C/C(=O)NO)=C\[C@@H](C)C(=O)c1ccc(N(C)C)cc1 [trichostatin A],maintenance of immunophenotypic HSCs by structurally distinct HDAC inhibitors,[1],function equivalently to maintain immunophenotypic HSCs
COc1cc2c(NC3CCN(C(C)C)CC3)nc(C3CCCCC3)nc2cc1OCCCN1CCCC1 [UNC0638],heterogeneity of Fgd5 ZsGr+ cells with respect to CD48 and Sca1 expression,[2],reduces heterogeneity
"O=C(O)[C@H](Cc1c[nH]c2ccccc12)N1C(=O)c2ccccc2C1=O [RG108, N-Phthalyl-L-tryptophan]",heterogeneity of Fgd5 ZsGr+ cells with respect to CD48 and Sca1 expression,[2],reduces heterogeneity
C/C=C1\NC(=O)[C@H]2CSSCC/C=C/[C@H](CC(=O)N[C@H](C(C)C)C(=O)N2)OC(=O)[C@H](C(C)C)NC1=O [Romidepsin],replacement of pan HDAC inhibitor in chemical combination for maintenance/expansion of human HSCs,[3],can replace the pan HDAC inhibitor Trichostatin A for efficient ex vivo maintenance/expansion of human HSCs
"Oc1ccc(-c2nc(-c3ccc(F)cc3)c(-c3ccncc3)[nH]2)cc1 [SB202190, 4(4-Fluorophenyl)-2-(4-hydroxyphenyl)-5-(4-pyridyl) 1H-imidazole]",selectivity among p38 MAPK isoforms,p38 MAPK,selectively antagonize p38 MAPK α- and β-isoforms without disrupting the enzymatic activity of the γ- or δ-isoforms
CC(C)n1cnc2c(NCCc3ccc(O)cc3)nc(-c3csc4ccccc34)nc21 [SR1],expansion and self-renewal of human CD34+ hematopoietic stem cells,[4],promotes expansion and self-renewal of human CD34+ peripheral blood and cord blood hematopoietic stem cells
CN1CCN(C(=O)CN[C@@H]2C[C@H]2c2ccc(OCc3ccccc3)cc2)CC1 [LS],appearance of cultures (images at 4x magnification),[5],more homogenous and less differentiated
same,maintenance and expansion of ZsGr+ HSCs,ZsGr+ murine HSCs,supports maintenance and expansion of ZsGr+ murine HSCs
same,frequency of GEMM colonies,human cord blood HSCs,elevated frequency of most primitive GEMM colonies
Cc1cccc(-c2n[nH]cc2-c2ccc3ncccc3n2)n1 [RS],maintenance and expansion of ZsGr+ HSCs,ZsGr+ murine HSCs,supports maintenance and expansion of ZsGr+ murine HSCs
same,frequency of GEMM colonies,human cord blood HSCs,elevated frequency of most primitive GEMM colonies
CCCC(CCC)C(=O)O [valproic acid],maintenance of immunophenotypic HSCs by structurally distinct HDAC inhibitors,[1],function equivalently to maintain immunophenotypic HSCs
